Assay results taken from patent publication US6737383B1, “Herbicidal oxadiazolidines” (priority 1999, dated 2004).

How the values were obtained:
[1] = tested on: cocklebur; test: Test B pre/postemergence cocklebur; type: in vivo, Xanthium strumarium
In short: (§1)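 Response is a visual 0-to-10 score relative to untreated plants, where 0 means no effect and 10 means complete control, taken twelve to sixteen days after application. Treatments went onto soil at planting and onto foliage of 1- to 4-leaf plants, using a surfactant-containing non-phytotoxic solvent.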

[2] = tested on: surinam grass; test: Test B pre/postemergence surinam grass; type: in vivo, Brachiaria decumbens
In short: as §1

[3] = tested on: morningglory; test: Test B pre/postemergence morningglory; type: in vivo, Ipomoea hederacea
In short: as §1

[4] = tested on: duck salad; test: Test B flood test duck salad; type: in vivo, Heteranthera limosa
In short: (§2)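 Read-out is a visual response score from 0 (no effect) to 10 (complete control), assigned by comparison with untreated controls. Treatment was applied at the 2-leaf stage, and plants stayed in the greenhouse for twelve to sixteen days before scoring.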

[5] = tested on: soybean; test: Test B pre/postemergence soybean; type: in vivo, Glycine max
In short: as §1

[6] = tested on: sugar beet; test: Test B pre/postemergence sugar beet; type: in vivo, Beta vulgaris
In short: as §1

[7] = tested on: wild oat; test: Test B pre/postemergence wild oat; type: in vivo, Avena fatua
In short: as §1

[8] = tested on: rape; test: Test B pre/postemergence rape; type: in vivo, Brassica napus
In short: as §1

[9] = tested on: velvetleaf; test: Test B pre/postemergence velvetleaf; type: in vivo, Abutilon theophrasti
In short: as §1

[10] = tested on: crabgrass; test: Test B pre/postemergence crabgrass; type: in vivo, Digitaria sanguinalis
In short: as §1

[11] = tested on: smallflower flatsedge; test: Test B flood test smallflower flatsedge; type: in vivo, Cyperus difformis
In short: as §2

[12] = tested on: blackgrass; test: Test B pre/postemergence blackgrass; type: in vivo, Alopecurus myosuroides
In short: as §1

[13] = tested on: purple nutsedge; test: Test B pre/postemergence purple nutsedge; type: in vivo, Cyperus rotundus
In short: as §1

[14] = tested on: giant foxtail; test: Test B pre/postemergence giant foxtail; type: in vivo, Setaria faberii
In short: as §1

[15] = tested on: corn; test: Test B pre/postemergence corn; type: in vivo, Zea mays
In short: as §1

[16] = tested on: wheat; test: Test B pre/postemergence wheat; type: in vivo, Triticum aestivum
In short: as §1

[17] = Postemergence, Rate 62 g/ha, scale 0 to 10, 0 is no effect, 10 is complete control
[18] = Postemergence, Rate 125 g/ha, scale of 0 to 10 where 0 is no effect and 10 is complete control
[19] = Postemergence, Rate 250 g/ha, scale of 0 to 10, 0 is no effect, 10 is complete control
[20] = Postemergence, Rate 500 g/ha, scale of 0 to 10 where 0 is no effect and 10 is complete control
[21] = Preemergence, Rate 62 g/ha, scale of 0 to 10 where 0 is no effect and 10 is complete control
[22] = Preemergence, Rate 125 g/ha, scale of 0 to 10 where 0 is no effect and 10 is complete control
[23] = Preemergence, Rate 250 g/ha, scale 0 to 10 (0 no effect, 10 complete control)
[24] = Preemergence, Rate 500 g/ha, scale of 0 to 10 where 0 is no effect and 10 is complete control
[25] = Rate 62 g/ha, flood test species, Pre-emergence, visual evaluation after twelve to sixteen days
[26] = Rate 125 g/ha, under heading Pre-emergence, flood test species, visual evaluation after twelve to sixteen days
[27] = Rate 250 g/ha, Pre-emergence (flood test species), scale 0 to 10, 0 is no effect, 10 is complete control
[28] = Rate 500 g/ha, Pre-emergence section of Table B, 0 to 10 scale (0 no effect, 10 complete control)

`CC(C)N(C(=O)n1oc(=O)n(Cc2nnc(Cl)s2)c1=O)c1ccc(F)cc1` [Compound 646] was tested, and the “Plant response rating, Cocklebur” value [1, 17] was 0, the “Cocklebur plant response rating” value [1, 18] was 0 and the “Cocklebur plant response rating” value [1, 19] was 0. For the same compound, the “Plant response rating, Cocklebur” value [1, 20] was 0, the “Cocklebur plant response rating” value [1, 21] was 0 and the “Cocklebur plant response rating” value [1, 22] was 0. For the same compound, the “Plant response rating, Cocklebur” value [1, 23] was 0, the “Plant response rating, Cocklebur” value [1, 24] was 0 and the “Plant response rating, B. signalgrass” value [2, 17] was 0. The “Plant response rating, B. signalgrass” value [2, 18] was 0, the “B. signalgrass plant response rating” value [2, 19] was 0 and the “Plant response rating, B. signalgrass” value [2, 20] was 0. The “B. signalgrass plant response rating” value [2, 21] was 0, the “B. signalgrass plant response rating” value [2, 22] was 0 and the “Plant response rating, B. signalgrass” value [2, 23] was 0. For the same compound, the “Plant response rating, B. signalgrass” value [2, 24] was 0, the “Plant response rating, Morningglory” value [3, 17] was 0 and the “Morningglory plant response rating” value [3, 18] was 0. The “Morningglory plant response rating” value [3, 19] was 0, the “Plant response rating, Morningglory” value [3, 20] was 4 and the “Morningglory plant response rating” value [3, 21] was 0. For the same compound, the “Morningglory plant response rating” value [3, 22] was 0, the “Plant response rating, Morningglory” value [3, 23] was 0 and the “Plant response rating, Morningglory” value [3, 24] was 0. For the same compound, the “Plant response rating, Ducksalad (0 to 10 scale, 0 is no effect, 10 is complete control)” value [4, 25] was 0, the “Ducksalad plant response rating (0 to 10 scale, 0 is no effect, 10 is complete control)” value [4, 26] was 0 and the “Ducksalad plant response rating” value [4, 27] was 0. For the same compound, the “Ducksalad plant response rating” value [4, 28] was 0, the “Plant response rating, Soybean” value [5, 17] was 0 and the “Soybean plant response rating” value [5, 18] was 1. For the same compound, the “Soybean plant response rating” value [5, 21] was 0, the “Soybean plant response rating” value [5, 22] was 0 and the “Plant response rating, Soybean” value [5, 23] was 0. For the same compound, the “Plant response rating, Soybean” value [5, 24] was 0, the “Plant response rating, Sugarbeets” value [6, 17] was 0 and the “Sugarbeets plant response rating” value [6, 18] was 0. For the same compound, the “Sugarbeets plant response rating” value [6, 21] was 0, the “Sugarbeets plant response rating” value [6, 22] was 0 and the “Plant response rating, Sugarbeets” value [6, 23] was 0. The “Plant response rating, Sugarbeets” value [6, 24] was 0, the “Plant response rating, Wild oats” value [7, 17] was 0 and the “Wild oats plant response rating” value [7, 18] was 0. For the same compound, the “Wild oats plant response rating” value [7, 21] was 0, the “Wild oats plant response rating” value [7, 22] was 0 and the “Plant response rating, Wild oats” value [7, 23] was 0. For the same compound, the “Plant response rating, Wild oats” value [7, 24] was 0, the “Plant response rating, Rape” value [8, 17] was 0 and the “Rape plant response rating” value [8, 18] was 0. The “Plant response rating, Rape” value [8, 20] was 0, the “Rape plant response rating” value [8, 21] was 0 and the “Rape plant response rating” value [8, 22] was 0. The “Plant response rating, Rape” value [8, 23] was 0, the “Plant response rating, Rape” value [8, 24] was 0 and the “Plant response rating, Velvetleaf” value [9, 17] was 0. The “Velvetleaf plant response rating” value [9, 18] was 0, the “Velvetleaf plant response rating” value [9, 21] was 0 and the “Velvetleaf plant response rating” value [9, 22] was 0. The “Plant response rating, Velvetleaf” value [9, 23] was 0, the “Plant response rating, Velvetleaf” value [9, 24] was 0 and the “Plant response rating, Crabgrass” value [10, 17] was 0. For the same compound, the “Crabgrass plant response rating” value [10, 18] was 0, the “Crabgrass plant response rating” value [10, 19] was 0 and the “Plant response rating, Crabgrass” value [10, 20] was 1. The “Crabgrass plant response rating” value [10, 22] was 0, the “Plant response rating, Crabgrass” value [10, 23] was 0 and the “Plant response rating, Crabgrass” value [10, 24] was 0. For the same compound, the “Plant response rating, S. Flatsedge (0 to 10 scale, 0 is no effect, 10 is complete control)” value [11, 25] was 0, the “S. Flatsedge plant response rating (0 to 10 scale, 0 is no effect, 10 is complete control)” value [11, 26] was 0 and the “S. Flatsedge plant response rating” value [11, 27] was 0. The “S. Flatsedge plant response rating” value [11, 28] was 0, the “Plant response rating, Blackgrass” value [12, 17] was 0 and the “Blackgrass plant response rating” value [12, 18] was 0. For the same compound, the “Blackgrass plant response rating” value [12, 19] was 0, the “Plant response rating, Blackgrass” value [12, 20] was 0 and the “Blackgrass plant response rating” value [12, 21] was 0. The “Blackgrass plant response rating” value [12, 22] was 0, the “Plant response rating, Blackgrass” value [12, 23] was 0 and the “Plant response rating, Blackgrass” value [12, 24] was 0. For the same compound, the “Plant response rating, Nutsedge” value [13, 17] was 0, the “Nutsedge plant response rating” value [13, 18] was 0 and the “Plant response rating, Nutsedge” value [13, 20] was 0. The “Nutsedge plant response rating” value [13, 21] was 0, the “Nutsedge plant response rating” value [13, 22] was 0 and the “Plant response rating, Nutsedge” value [13, 23] was 0. The “Plant response rating, Nutsedge” value [13, 24] was 0, the “Plant response rating, Giant foxtail” value [14, 17] was 0 and the “Giant foxtail plant response rating” value [14, 18] was 0. The “Giant foxtail plant response rating” value [14, 19] was 0, the “Plant response rating, Giant foxtail” value [14, 20] was 0 and the “Giant foxtail plant response rating” value [14, 21] was 0. The “Giant foxtail plant response rating” value [14, 22] was 0, the “Plant response rating, Giant foxtail” value [14, 23] was 0 and the “Plant response rating, Giant foxtail” value [14, 24] was 0. For the same compound, the “Plant response rating, Corn” value [15, 17] was 0, the “Corn plant response rating” value [15, 18] was 0 and the “Corn plant response rating” value [15, 19] was 0. For the same compound, the “Plant response rating, Corn” value [15, 20] was 0, the “Corn plant response rating” value [15, 21] was 0 and the “Corn plant response rating” value [15, 22] was 0. For the same compound, the “Plant response rating, Corn” value [15, 23] was 0, the “Plant response rating, Corn” value [15, 24] was 0 and the “Plant response rating, Wheat” value [16, 17] was 0. For the same compound, the “Wheat plant response rating” value [16, 18] was 0, the “Wheat plant response rating” value [16, 21] was 0 and the “Wheat plant response rating” value [16, 22] was 0. For the same compound, the “Plant response rating, Wheat” value [16, 23] was 0 and the “Plant response rating, Wheat” value [16, 24] was 0.
